Measured values as given in PubChem BioAssay (NCI).
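Tested at 5 concentrations; 48 h exposure; 96-well plates; endpoints linearly interpolated, else capped at highest concentration. GI50 = concentration required for 50% inhibition of growth. The concentration for full growth arrest is given as TGI.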

Columns and labels:
Experiment in all cases: DTP human tumour cell line panel, 48 h
[1] = tested on: NCI-H460 lung
[2] = tested on: MCF7 breast
[3] = tested on: SF-295 CNS
[4] = tested on: LOX IMVI melanoma
[5] = tested on: COLO 205 colon
[6] = tested on: CAKI-1 renal
[7] = tested on: MDA-MB-435
[8] = tested on: SW-620 colon
[9] = tested on: KM12 colon
[10] = tested on: EKVX NSCLC

## Cn1c(=O)c(Sc2ccccc2F)cc2cnc(NC3CCOCC3)nc21
[1]
  GI50: > 25 µM
  TGI: > 25 µM
[2]
  GI50: > 25 µM
  TGI: > 25 µM
[3]
  GI50: > 25 µM
  TGI: > 25 µM
[4]
  GI50: > 25 µM
  TGI: > 25 µM
[5]
  GI50: > 25 µM
  TGI: > 25 µM
[6]
  GI50: > 25 µM
  TGI: > 25 µM
[7]
  GI50: > 25 µM
  TGI: > 25 µM
[8]
  GI50: > 25 µM
  TGI: > 25 µM
[9]
  GI50: > 25 µM
  TGI: > 25 µM

## O=[N+]([O-])c1ccc(Oc2cccnc2)c([N+](=O)[O-])c1
[1]
  GI50: 10.5 µM
  TGI: 47.8 µM
[2]
  GI50: 3.74 µM
  TGI: 17.6 µM
[3]
  GI50: 18.6 µM
  TGI: > 100 µM
[4]
  GI50: 3.16 µM
  TGI: 13.3 µM
[5]
  GI50: 2.35 µM
  TGI: 4.39 µM
[6]
  GI50: 2.26 µM
  TGI: 22.9 µM
[8]
  GI50: 3.27 µM
  TGI: 12.5 µM
[9]
  GI50: 2.69 µM
  TGI: 6.68 µM
[10]
  GI50: 14.6 µM
  TGI: 32.2 µM

## CCCCC(SC(=S)N(CC)CC)C(=O)Nc1nc(CC(=O)OCC)cs1 (stereo not given)
[3]
  GI50: 38.6 µM
  TGI: > 100 µM
[4]
  GI50: 29.6 µM
  TGI: > 100 µM
[6]
  GI50: 91.7 µM
  TGI: > 100 µM
[7]
  GI50: 31.4 µM
  TGI: > 100 µM
[8]
  GI50: 38 µM
  TGI: > 100 µM
[9]
  GI50: 31.6 µM
  TGI: > 100 µM
[10]
  GI50: 45.7 µM
  TGI: > 100 µM

## COc1ccc(S(=O)(=O)Nc2cc(/C=C\c3cc(OC)c(OC)c(OC)c3)cc(OC)c2OC)cc1OC
[1]
  GI50: 0.399 µM
  TGI: > 100 µM
[2]
  GI50: 0.484 µM
  TGI: > 100 µM
[3]
  GI50: 0.47 µM
  TGI: 55.6 µM
[4]
  GI50: 0.472 µM
  TGI: > 100 µM
[5]
  GI50: 1.28 µM
  TGI: > 100 µM
[6]
  GI50: 0.813 µM
  TGI: > 100 µM
[8]
  GI50: 0.478 µM
  TGI: > 100 µM
[9]
  GI50: 0.639 µM
  TGI: > 100 µM
[10]
  GI50: 3.6 µM
  TGI: > 100 µM

## CC(=O)N(/N=C\c1ccc([N+](=O)[O-])cc1)c1ccccc1
[1]
  TGI: > 100 µM
[3]
  TGI: > 100 µM
[4]
  TGI: > 100 µM
[5]
  TGI: > 100 µM
[6]
  TGI: > 100 µM
[8]
  TGI: > 100 µM
[9]
  TGI: > 100 µM
[10]
  TGI: > 100 µM

## CC(=O)c1cc2c3c(c1)c1cc4c(cc1c(=O)n3CC2)OCO4
[1]
  TGI: 49.7 µM
[3]
  TGI: > 100 µM
[4]
  TGI: > 100 µM
[5]
  TGI: > 100 µM
[6]
  TGI: 91.3 µM
[8]
  TGI: > 100 µM
[9]
  TGI: > 100 µM
[10]
  TGI: > 100 µM

## [Ce+3].[Cl-].[O-]/N=C(\c1ccccc1)c1ccccn1.[O-]/N=C(\c1ccccc1)c1ccccn1.[O-]/N=C(\c1ccccc1)c1ccccn1
[1]
  GI50: 47.1 µM
  TGI: > 100 µM
[3]
  GI50: 37.2 µM
  TGI: > 100 µM
[4]
  GI50: 26 µM
  TGI: 64.7 µM
[5]
  GI50: 33.1 µM
  TGI: > 100 µM
[6]
  GI50: 32.4 µM
  TGI: > 100 µM
[8]
  GI50: 46.1 µM
  TGI: > 100 µM
[9]
  GI50: 46.8 µM
  TGI: > 100 µM
[10]
  GI50: 30.2 µM
  TGI: > 100 µM

## O=Cc1ncc(-c2ccc(C(F)(F)F)cc2)c(NC2CCCCCC2)n1
[1]
  GI50: > 10 µM
  TGI: > 10 µM
[2]
  GI50: > 10 µM
  TGI: > 10 µM
[3]
  GI50: > 10 µM
  TGI: > 10 µM
[4]
  GI50: > 10 µM
  TGI: > 10 µM
[5]
  GI50: > 10 µM
  TGI: > 10 µM
[6]
  GI50: > 10 µM
  TGI: > 10 µM
[7]
  GI50: > 10 µM
  TGI: > 10 µM
[8]
  GI50: > 10 µM
  TGI: > 10 µM
[9]
  GI50: > 10 µM
  TGI: > 10 µM

## COC(=O)C1C2CC3C(OC(=O)C31)C2I (stereo not given)
[1]
  TGI: > 100 µM
[3]
  TGI: > 100 µM
[4]
  TGI: > 100 µM
[5]
  TGI: > 100 µM
[6]
  TGI: > 100 µM
[8]
  TGI: > 100 µM
[9]
  TGI: > 100 µM
[10]
  TGI: > 100 µM

## COc1ccc(C2Cc3cc(OC)c(OC)c(OC)c3C2=O)cc1 (stereo not given)
[1]
  TGI: > 100 µM
[3]
  TGI: > 100 µM
[4]
  TGI: > 100 µM
[5]
  TGI: > 100 µM
[6]
  TGI: > 100 µM
[8]
  TGI: > 100 µM
[9]
  TGI: > 100 µM
[10]
  TGI: > 100 µM

## CCC[CH2][Sn]([CH2]CCC)([O]C(=O)c1cc(OC)c(OC)c(OC)c1)[O]C(=O)c1cc(OC)c(OC)c(OC)c1
[1]
  GI50: 2.96 µM
  TGI: 9.21 µM
[3]
  GI50: 1.6 µM
  TGI: 3.19 µM
[4]
  GI50: 0.695 µM
  TGI: 2.77 µM
[5]
  GI50: 1.22 µM
  TGI: 2.59 µM
[6]
  GI50: 0.3 µM
  TGI: 1.31 µM
[8]
  GI50: 0.973 µM
  TGI: 2.72 µM
[9]
  GI50: 1.45 µM
  TGI: 3.01 µM
[10]
  GI50: 1.95 µM
  TGI: 4.69 µM

## O=C(c1ccc(F)c(F)c1Nc1ccc(I)cc1F)N1CC(O)([C@H]2CCCCN2)C1
[1]
  GI50: 4.19 µM
  TGI: 20.2 µM
[2]
  GI50: 6.56 µM
  TGI: 21.3 µM
[3]
  GI50: 14.5 µM
  TGI: 28.9 µM
[4]
  GI50: 1.05 µM
  TGI: 5.49 µM
[5]
  GI50: 0.0735 µM
  TGI: 4.1 µM
[6]
  GI50: 6.28 µM
  TGI: 20.3 µM
[7]
  GI50: 0.161 µM
  TGI: 15.8 µM
[8]
  GI50: 0.34 µM
  TGI: 15 µM
[9]
  GI50: 1.12 µM
  TGI: 14 µM

## C=C1C(=O)O[C@H]2[C@H]1CC/C(COC(=O)NCc1c[nH]c3ccc(OC)cc13)=C\CC[C@@]1(C)O[C@@H]21
[1]
  GI50: 3.76 µM
  TGI: 16.7 µM
[3]
  GI50: 10.4 µM
  TGI: 22.3 µM
[4]
  GI50: 1.19 µM
  TGI: 2.52 µM
[5]
  GI50: 1.22 µM
  TGI: 2.71 µM
[6]
  GI50: 1.46 µM
  TGI: 3.28 µM
[7]
  GI50: 1.27 µM
  TGI: 2.87 µM
[8]
  GI50: 0.45 µM
  TGI: 1.92 µM
[9]
  GI50: 3.54 µM
  TGI: 14 µM
[10]
  GI50: 2.07 µM
  TGI: 6.2 µM

## OCC1OC(n2ccc3cnccc32)CC1O (stereo not given)
[1]
  TGI: > 100 µM
[3]
  TGI: > 100 µM
[4]
  TGI: > 100 µM
[5]
  TGI: > 100 µM
[6]
  TGI: > 100 µM
[8]
  TGI: > 100 µM
[9]
  TGI: > 100 µM
[10]
  TGI: > 100 µM

## c1ccc2c(c1)nnn1c3cnccc3nc21
[1]
  TGI: 37.4 µM
[3]
  TGI: > 100 µM
[4]
  TGI: > 100 µM
[5]
  TGI: 46.1 µM
[6]
  TGI: > 100 µM
[8]
  TGI: > 100 µM
[9]
  TGI: 64.8 µM
[10]
  TGI: > 100 µM

## O=C1OCC2=C1C(c1cccc([N+](=O)[O-])c1)c1cc3c(cc1N2CCO)CCC3 (stereo not given)
[1]
  GI50: 0.172 µM
  TGI: 14.6 µM
[2]
  GI50: 0.0596 µM
  TGI: > 50 µM
[3]
  GI50: 0.0789 µM
  TGI: 16.4 µM
[4]
  GI50: 0.286 µM
  TGI: 8.29 µM
[5]
  GI50: 0.153 µM
  TGI: 2.39 µM
[6]
  GI50: 0.083 µM
  TGI: > 38 µM
[8]
  GI50: 0.179 µM
  TGI: > 50 µM
[9]
  GI50: 0.0928 µM
  TGI: 19.8 µM
[10]
  GI50: 0.28 µM
  TGI: > 50 µM
